Laboratory results as given in patent US12679822B2, “Alkenyl pyrimidine compound, preparation method therefor, and application thereof” (Hongyun Biotech Co., Ltd., priority 2020, dated 2026).

What was measured:
Assay type in all cases: cell-based
[1] = target: BaF3 cell lines stably transfected with kinase EGFR L858R (Homo sapiens, UniProt P00533, L858R, cells depend on it); experiment: Growth inhibition of BaF3 cell line stably transfected with kinase EGFR L858R (MTS); conditions: 48 h, read-out: growth inhibitory activity IC50, L858R
Sequence of BaF3 cell lines stably transfected with kinase EGFR L858R (P00533 whole entry L858R): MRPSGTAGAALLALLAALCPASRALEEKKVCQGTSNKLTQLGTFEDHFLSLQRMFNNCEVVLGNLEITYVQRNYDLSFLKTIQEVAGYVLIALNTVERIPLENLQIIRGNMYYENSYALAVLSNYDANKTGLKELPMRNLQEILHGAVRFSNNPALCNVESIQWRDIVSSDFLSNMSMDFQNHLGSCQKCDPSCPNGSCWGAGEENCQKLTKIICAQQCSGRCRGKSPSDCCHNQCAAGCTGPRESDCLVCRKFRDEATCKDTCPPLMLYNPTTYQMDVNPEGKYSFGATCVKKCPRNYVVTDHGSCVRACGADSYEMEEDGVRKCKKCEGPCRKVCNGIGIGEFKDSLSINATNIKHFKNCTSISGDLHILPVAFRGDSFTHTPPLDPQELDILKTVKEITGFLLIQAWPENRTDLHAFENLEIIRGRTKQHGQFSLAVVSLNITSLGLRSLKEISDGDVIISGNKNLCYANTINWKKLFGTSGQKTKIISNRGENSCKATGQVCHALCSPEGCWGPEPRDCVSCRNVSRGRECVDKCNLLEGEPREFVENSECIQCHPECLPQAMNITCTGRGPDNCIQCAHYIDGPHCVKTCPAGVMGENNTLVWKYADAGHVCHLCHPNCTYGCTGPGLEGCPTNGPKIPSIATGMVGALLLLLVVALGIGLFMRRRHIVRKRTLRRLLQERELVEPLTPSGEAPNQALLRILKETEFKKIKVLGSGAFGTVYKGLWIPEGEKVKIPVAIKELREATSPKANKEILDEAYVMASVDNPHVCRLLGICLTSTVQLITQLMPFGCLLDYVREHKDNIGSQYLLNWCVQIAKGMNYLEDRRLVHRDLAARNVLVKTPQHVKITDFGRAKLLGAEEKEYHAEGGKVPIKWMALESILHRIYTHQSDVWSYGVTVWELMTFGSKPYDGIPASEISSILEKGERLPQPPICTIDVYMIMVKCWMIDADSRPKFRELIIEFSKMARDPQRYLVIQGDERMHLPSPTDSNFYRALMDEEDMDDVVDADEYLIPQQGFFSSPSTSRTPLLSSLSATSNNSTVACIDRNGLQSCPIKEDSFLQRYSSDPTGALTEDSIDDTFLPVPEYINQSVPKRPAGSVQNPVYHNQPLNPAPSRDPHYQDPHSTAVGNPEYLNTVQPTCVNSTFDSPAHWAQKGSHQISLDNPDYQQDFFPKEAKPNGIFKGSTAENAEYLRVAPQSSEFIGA
In short: (§1)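 Cells were seeded, then treated with an 8-point, threefold-descending series starting at 10 μM in 0.1% DMSO. After 48 h incubation at 37 °C, MTS reaction solution was added for 1-4 h before reading OD at 490 nm. IC50 values were derived from inhibition rates relative to controls.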

[2] = target: BaF3 cell lines stably transfected with kinase EGFR L858R/T790M (Homo sapiens, UniProt P00533, T790M/L858R, cells depend on it); experiment: Growth inhibition of BaF3 cell line stably transfected with kinase EGFR L858R/T790M (MTS); conditions: 48 h, read-out: growth inhibitory activity IC50, L858R/T790M
In short: as §1

[3] = target: BaF3 cell lines stably transfected with kinase EGFR Del/T790M (Homo sapiens, UniProt P00533, T790M, cells depend on it, form not given); experiment: Growth inhibition of BaF3 cell line stably transfected with kinase EGFR Del/T790M (MTS); conditions: 48 h, read-out: growth inhibitory activity IC50, Del/T790M
In short: as §1

[4] = target: BaF3 cell lines stably transfected with kinase EGFR Del/T790M/C797S (Homo sapiens, UniProt P00533, T790M/C797S, cells depend on it, form not given); experiment: Growth inhibition of BaF3 cell line stably transfected with kinase EGFR Del/T790M/C797S (MTS); conditions: 48 h, read-out: growth inhibitory activity IC50, Del/T790M/C797S
Sequence of BaF3 cell lines stably transfected with kinase EGFR Del/T790M/C797S (P00533 with tags, fused parts or gaps DEL746-750/T790M/C797S, form open): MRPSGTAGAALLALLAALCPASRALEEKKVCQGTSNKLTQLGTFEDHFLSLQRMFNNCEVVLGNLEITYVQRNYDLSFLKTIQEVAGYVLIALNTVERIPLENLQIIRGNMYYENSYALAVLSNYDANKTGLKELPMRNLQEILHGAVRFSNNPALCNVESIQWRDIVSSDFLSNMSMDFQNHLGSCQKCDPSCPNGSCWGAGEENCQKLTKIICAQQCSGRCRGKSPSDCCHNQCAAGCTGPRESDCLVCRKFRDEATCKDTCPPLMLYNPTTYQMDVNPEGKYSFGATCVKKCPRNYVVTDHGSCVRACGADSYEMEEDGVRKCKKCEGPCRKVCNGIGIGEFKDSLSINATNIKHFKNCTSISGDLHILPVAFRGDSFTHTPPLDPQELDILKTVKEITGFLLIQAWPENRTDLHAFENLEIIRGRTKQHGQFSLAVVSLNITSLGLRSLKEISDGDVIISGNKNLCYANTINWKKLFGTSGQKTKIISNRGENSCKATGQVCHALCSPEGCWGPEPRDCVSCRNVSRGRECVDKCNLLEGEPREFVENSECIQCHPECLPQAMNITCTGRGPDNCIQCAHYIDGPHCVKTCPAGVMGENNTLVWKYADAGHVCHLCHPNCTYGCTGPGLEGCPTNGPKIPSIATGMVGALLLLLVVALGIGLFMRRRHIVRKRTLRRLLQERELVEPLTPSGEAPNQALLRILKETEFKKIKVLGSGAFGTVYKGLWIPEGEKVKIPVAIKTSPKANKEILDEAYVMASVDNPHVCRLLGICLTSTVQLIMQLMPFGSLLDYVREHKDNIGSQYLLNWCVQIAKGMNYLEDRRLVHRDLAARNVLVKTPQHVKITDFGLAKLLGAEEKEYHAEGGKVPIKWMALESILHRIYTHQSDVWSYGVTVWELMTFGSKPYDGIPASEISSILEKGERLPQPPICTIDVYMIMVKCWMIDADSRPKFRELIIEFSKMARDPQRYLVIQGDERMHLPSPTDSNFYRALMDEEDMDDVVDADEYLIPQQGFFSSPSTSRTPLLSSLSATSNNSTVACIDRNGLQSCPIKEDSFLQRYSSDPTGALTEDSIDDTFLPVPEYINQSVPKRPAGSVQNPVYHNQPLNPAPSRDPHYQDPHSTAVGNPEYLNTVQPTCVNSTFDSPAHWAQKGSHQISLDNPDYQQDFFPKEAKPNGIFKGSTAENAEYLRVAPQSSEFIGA
In short: as §1

[5] = target: BaF3 cell lines stably transfected with kinase EGFR Del (Homo sapiens, UniProt P00533, cells depend on it, form not given); experiment: Growth inhibition of BaF3 cell line stably transfected with kinase EGFR Del (MTS); conditions: 48 h, read-out: growth inhibitory activity IC50, Del
Sequence of BaF3 cell lines stably transfected with kinase EGFR Del (P00533 with tags, fused parts or gaps DEL746-750): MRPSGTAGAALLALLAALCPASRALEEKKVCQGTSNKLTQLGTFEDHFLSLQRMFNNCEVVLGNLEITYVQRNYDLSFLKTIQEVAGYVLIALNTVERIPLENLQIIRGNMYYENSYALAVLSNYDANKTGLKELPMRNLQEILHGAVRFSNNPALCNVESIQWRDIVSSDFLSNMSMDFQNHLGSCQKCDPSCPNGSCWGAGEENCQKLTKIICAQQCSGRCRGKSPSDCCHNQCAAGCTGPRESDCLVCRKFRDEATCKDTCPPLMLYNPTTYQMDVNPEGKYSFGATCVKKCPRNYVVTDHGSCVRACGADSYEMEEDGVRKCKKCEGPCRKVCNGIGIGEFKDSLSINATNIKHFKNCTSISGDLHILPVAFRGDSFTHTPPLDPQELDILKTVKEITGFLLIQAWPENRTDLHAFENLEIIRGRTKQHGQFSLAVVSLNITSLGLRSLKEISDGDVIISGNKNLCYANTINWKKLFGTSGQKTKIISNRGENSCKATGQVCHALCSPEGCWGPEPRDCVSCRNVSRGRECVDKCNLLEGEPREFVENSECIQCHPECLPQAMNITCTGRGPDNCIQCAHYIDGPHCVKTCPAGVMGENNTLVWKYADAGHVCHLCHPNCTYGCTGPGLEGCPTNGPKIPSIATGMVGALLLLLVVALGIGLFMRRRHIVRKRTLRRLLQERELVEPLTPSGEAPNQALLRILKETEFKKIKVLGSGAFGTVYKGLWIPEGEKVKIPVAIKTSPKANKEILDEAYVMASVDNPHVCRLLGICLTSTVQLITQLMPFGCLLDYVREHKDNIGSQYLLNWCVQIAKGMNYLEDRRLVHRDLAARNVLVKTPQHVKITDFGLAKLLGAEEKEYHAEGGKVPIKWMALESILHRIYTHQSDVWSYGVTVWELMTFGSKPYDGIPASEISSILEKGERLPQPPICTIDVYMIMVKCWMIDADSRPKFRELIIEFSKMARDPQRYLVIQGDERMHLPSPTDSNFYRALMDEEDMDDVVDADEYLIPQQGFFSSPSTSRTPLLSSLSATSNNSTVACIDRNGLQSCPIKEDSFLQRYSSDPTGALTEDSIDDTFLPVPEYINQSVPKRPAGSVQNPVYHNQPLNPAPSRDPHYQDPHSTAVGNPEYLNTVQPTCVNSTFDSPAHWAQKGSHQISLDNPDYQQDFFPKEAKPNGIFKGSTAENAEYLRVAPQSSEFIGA
In short: as §1

[6] = target: BaF3 cell lines stably transfected with kinase EGFR L858R/T790M/C797S (Homo sapiens, UniProt P00533, T790M/C797S/L858R, cells depend on it); experiment: Growth inhibition of BaF3 cell line stably transfected with kinase EGFR L858R/T790M/C797S (MTS); conditions: 48 h, read-out: growth inhibitory activity IC50, L858R/T790M/C797S
Sequence of BaF3 cell lines stably transfected with kinase EGFR L858R/T790M/C797S (P00533 whole entry T790M/C797S/L858R): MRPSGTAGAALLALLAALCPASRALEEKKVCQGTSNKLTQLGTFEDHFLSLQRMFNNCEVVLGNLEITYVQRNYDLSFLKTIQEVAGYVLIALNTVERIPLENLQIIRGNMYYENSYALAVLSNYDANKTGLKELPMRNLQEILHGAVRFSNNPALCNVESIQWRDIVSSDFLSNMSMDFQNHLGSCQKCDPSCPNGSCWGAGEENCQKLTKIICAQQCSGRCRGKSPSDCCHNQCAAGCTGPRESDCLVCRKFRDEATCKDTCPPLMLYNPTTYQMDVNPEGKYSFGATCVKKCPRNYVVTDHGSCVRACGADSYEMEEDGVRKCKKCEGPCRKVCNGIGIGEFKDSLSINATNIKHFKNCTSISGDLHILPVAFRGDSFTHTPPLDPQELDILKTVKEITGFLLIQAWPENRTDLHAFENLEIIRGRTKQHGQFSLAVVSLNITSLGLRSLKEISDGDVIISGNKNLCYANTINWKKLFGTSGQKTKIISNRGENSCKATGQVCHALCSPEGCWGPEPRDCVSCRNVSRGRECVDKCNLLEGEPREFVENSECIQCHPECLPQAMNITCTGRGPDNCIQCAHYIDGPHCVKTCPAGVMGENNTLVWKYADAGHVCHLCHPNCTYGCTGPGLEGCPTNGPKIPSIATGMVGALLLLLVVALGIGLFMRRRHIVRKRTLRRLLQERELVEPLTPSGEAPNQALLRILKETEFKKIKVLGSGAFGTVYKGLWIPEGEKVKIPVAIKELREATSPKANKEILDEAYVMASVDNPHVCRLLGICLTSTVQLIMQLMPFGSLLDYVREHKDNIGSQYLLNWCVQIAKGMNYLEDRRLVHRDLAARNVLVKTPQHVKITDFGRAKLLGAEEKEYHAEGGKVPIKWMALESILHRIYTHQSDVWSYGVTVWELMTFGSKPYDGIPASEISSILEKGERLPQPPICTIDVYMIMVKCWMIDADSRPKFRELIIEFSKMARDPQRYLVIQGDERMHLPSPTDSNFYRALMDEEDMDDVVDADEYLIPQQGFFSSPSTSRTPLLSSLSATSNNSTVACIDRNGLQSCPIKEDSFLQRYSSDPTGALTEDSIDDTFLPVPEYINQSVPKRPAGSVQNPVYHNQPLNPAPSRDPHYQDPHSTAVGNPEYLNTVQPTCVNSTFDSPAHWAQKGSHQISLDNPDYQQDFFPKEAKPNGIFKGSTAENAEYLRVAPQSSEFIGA
In short: as §1

Row | GI50 [1] | GI50 [2] | GI50 [3] | GI50 [4] | GI50 [5] | GI50 [6] | SMILES
1 | 0.05 to 0.5 µM | 0.05 to 0.5 µM | 0.5 to 2.5 µM | 0.5 to 2.5 µM | 0.5 to 2.5 µM | 0.5 to 2.5 µM | C=Cc1cnc(Nc2ccc(N3CCC(N4CCN(C)CC4)CC3)cc2OC)nc1Nc1ccc2nccnc2c1S(=O)(=O)C(C)C [III-18]
2 | 0.05 to 0.5 µM | 0.05 to 0.5 µM | 0.05 to 0.5 µM | ≤ 0.05 µM | 0.05 to 0.5 µM | ≤ 0.05 µM | C=Cc1cnc(Nc2cc(CC)c(N3CCC(N4CCN(C)CC4)CC3)cc2OC)nc1Nc1ccc2nccnc2c1N(C)S(C)(=O)=O [II-53]
3 | 0.05 to 0.5 µM | 0.05 to 0.5 µM | 0.05 to 0.5 µM | 0.05 to 0.5 µM | 0.05 to 0.5 µM | 0.05 to 0.5 µM | C=Cc1cnc(Nc2cnn(C)c2)nc1Nc1ccc2nccnc2c1N(C)S(C)(=O)=O [II-65]
4 | 0.05 to 0.5 µM | 0.5 to 2.5 µM | 0.05 to 0.5 µM | 0.05 to 0.5 µM | 0.05 to 0.5 µM | 0.05 to 0.5 µM | C=Cc1cnc(Nc2cc(C)c(N3CCC(N4CCN(C)CC4)CC3)cc2OC)nc1Nc1ccc2nccnc2c1NS(=O)(=O)C(C)C [II-43]
5 | ≤ 0.05 µM | 0.05 to 0.5 µM | ≤ 0.05 µM | 0.05 to 0.5 µM | ≤ 0.05 µM | ≤ 0.05 µM | C=Cc1cnc(Nc2cc(C)c(N3CCC(N4CCN(C)CC4)CC3)cc2OC)nc1Nc1ccc2nccnc2c1NS(C)(=O)=O [II-31]
6 | ≤ 0.05 µM | ≤ 0.05 µM | ≤ 0.05 µM | ≤ 0.05 µM | ≤ 0.05 µM | ≤ 0.05 µM | C=Cc1cnc(Nc2cc(CC)c(N3CCC(N(C)C)CC3)cc2OC)nc1Nc1ccc2nccnc2c1NS(C)(=O)=O [II-39]
7 | 0.5 to 2.5 µM | 0.05 to 0.5 µM | 0.05 to 0.5 µM | 0.05 to 0.5 µM | 0.05 to 0.5 µM | 0.05 to 0.5 µM | C=Cc1cnc(Nc2cc(C(C)C)c(N3CCC(N4CCN(C)CC4)CC3)cc2OC)nc1Nc1ccc2nccnc2c1N(C)S(C)(=O)=O [II-17]
8 | ≤ 0.05 µM | ≤ 0.05 µM | ≤ 0.05 µM | 0.05 to 0.5 µM | ≤ 0.05 µM | 0.05 to 0.5 µM | C=C(C)c1cnc(Nc2cc(C3CC3)c(N3CCC(N4CCN(C)CC4)CC3)cc2OC)nc1Nc1ccc2nccnc2c1N(C)S(C)(=O)=O [II-23]

The next lines start with the compound.

Row | SMILES | GI50 [1] | GI50 [2] | GI50 [3] | GI50 [4] | GI50 [5] | GI50 [6]
9 | CCc1cc(Nc2ncc(/C=C/c3ccccc3)c(Nc3ccc4nccnc4c3P(C)(C)=O)n2)c(OC)cc1N1CCC(N2CCN(C)CC2)CC1 [Compound I-14] | ≤ 0.05 µM | 0.5 to 2.5 µM | 0.05 to 0.5 µM | 0.05 to 0.5 µM | 0.05 to 0.5 µM | 0.05 to 0.5 µM
10 | CCc1cc(Nc2ncc(/C=C/C3CC3)c(Nc3ccc4nccnc4c3P(C)(C)=O)n2)c(OC)cc1N1CCC(N2CCN(C)CC2)CC1 [Compound I-11] | ≤ 0.05 µM | 0.05 to 0.5 µM | 0.05 to 0.5 µM | 0.05 to 0.5 µM | ≤ 0.05 µM | 0.05 to 0.5 µM
11 | CCc1cc(Nc2ncc(C3=CCCC3)c(Nc3ccc4nccnc4c3P(C)(C)=O)n2)c(OC)cc1N1CCC(N2CCN(C)CC2)CC1 [Compound I-13] | ≤ 0.05 µM | 0.05 to 0.5 µM | 0.05 to 0.5 µM | 0.05 to 0.5 µM | ≤ 0.05 µM | 0.05 to 0.5 µM
12 | C=Cc1cnc(Nc2cc(CC)c(N3CCC(N4CCN(C)CC4)CC3)cc2OC(F)(F)F)nc1Nc1ccc2nccnc2c1P(C)(C)=O [Compound I-6] | ≤ 0.05 µM | ≤ 0.05 µM | ≤ 0.05 µM | ≤ 0.05 µM | 0.05 to 0.5 µM | ≤ 0.05 µM
